# According to patent US20260158028A1, “USE OF QUINOLINONE DERIVATIVE IN TREATMENT OF IMMUNE THROMBOCYTOPENIA” (CHIA TAI TIANQING PHARMACEUTICAL GROUP CO., LTD., priority 2021, published 2026):
# System: adult subjects with persistent or chronic immune thrombocytopenia
# Assay: Clinical trial for immune thrombocytopenia (platelet counts, safety)
# Assay type: in vivo, human
# Details: for platelet count: 600 mg/d; for clinical efficacy in treating immune thrombocytopenia: adult persistent or chronic immune thrombocytopenia; for overall safety: tablets orally once daily on an empty stomach, 28-day cycles, 6 subjects; for percentage of subjects with at least one platelet count of ≥30×10^9/L and an increase of ≥2 times the baseline in platelet count / percentage of subjects with at least one platelet count of ≥50×10^9/L: within 12 weeks of treatment; for percentage of subjects with at least one platelet count of ≥30×10^9/L and an increase of ≥2 times the baseline in platelet count: in the absence of emergency treatment, evaluated patients
# Protocol: Test drug: tablets of the compound of formula I, 50 mg/tablet or 200 mg/tablet; Administration regimen: orally taken once daily on an empty stomach, with 28 consecutive days of administration as one treatment cycle.
# Neutrophil count (ANC)>1.5×10^9/L; hemoglobin (Hb)>90 g/L; • b. Total bilirubin (TBIL), alanine aminotransferase (ALT), and aspartate aminotransferase (AST)≤1.5 times the upper limit of normal (ULN); serum creatinine≤1.5×ULN, and creatinine clearance rate≥50 mL/min; • c. […] Prothrombin time (PT) is within the normal range±3 s, and activated partial thromboplastin time (APTT) is within the normal range±10 s; • e. The subject has no history of coagulation disorders other than immune thrombocytopenia. • 8) A female subject of childbearing age should agree to take contraceptive measures (such as intrauterine devices, contraceptives, or condoms) during the study and for 90 days after the study; serum pregnancy test results should be negative within 7 days before enrollment, and the subject must be a non-lactating one; a male subject should agree to take contraceptive measures during the study and for 6 months after the study.
# Efficacy was evaluated according to the platelet counts, WHO bleeding scores, and emergency treatment received of the subjects. The effective rate of platelet count increase was used as a main measure of efficacy, and for evaluation criteria, reference was made to American Society of Hematology 2019 Guidelines for Immune Thrombocytopenia and Chinese Guidelines for Diagnosing and Treating Adult Primary Immune Thrombocytopenia (2020 Edition).
# A total of 6 subjects were enrolled, with 3 in the 400 mg group (the dose for 2 of them was increased to 600 mg) and 3 in the 600 mg group.
# [1] = 400 mg and 600 mg groups, listed as tablets of the compound of formula I
# [2] = tablets orally once daily, 400 mg and 600 mg groups
structure (smiles),measurement,setting,value
Cn1c(=O)c(Nc2ccc(N3CCN(C4COC4)CC3)cn2)cc2c(F)c(-c3cc[nH]n3)ccc21 [compound of formula I],platelet count,"Subject 1, previous third-line therapy, baseline mean 22, D 3",5.2e+10 L⁻¹
same,platelet count,"Subject 1, previous third-line therapy, baseline mean 22, D 11",2.2e+11 L⁻¹
same,platelet count,"Subject 1, previous third-line therapy, baseline mean 22, D 18",7e+09 L⁻¹
same,platelet count,"Subject 1, previous third-line therapy, baseline mean 22, D 25",9e+09 L⁻¹
same,platelet count,"Subject 1, previous third-line therapy, baseline mean 22, W 5 D 1",8.9e+10 L⁻¹
same,platelet count,"Subject 1, previous third-line therapy, baseline mean 22, W 6 D 1",8.4e+10 L⁻¹
same,platelet count,"Subject 1, previous third-line therapy, baseline mean 22, W 7 D 1",3.5e+10 L⁻¹
same,platelet count,"Subject 1, previous third-line therapy, baseline mean 22, W 8 D 1",1.31e+11 L⁻¹
same,platelet count,"Subject 1, previous third-line therapy, baseline mean 22, W 9 D 1",2.24e+11 L⁻¹
same,platelet count,"Subject 1, previous third-line therapy, baseline mean 22, W 10 D 1",2.5e+10 L⁻¹
same,platelet count,"Subject 1, previous third-line therapy, baseline mean 22, W 12 D 1",1e+11 L⁻¹
same,platelet count,"Subject 2, previous second-line therapy, baseline mean 6.5, D 3",1e+10 L⁻¹
same,platelet count,"Subject 2, previous second-line therapy, baseline mean 6.5, D 11",3.1e+10 L⁻¹
same,platelet count,"Subject 2, previous second-line therapy, baseline mean 6.5, D 18",3.5e+10 L⁻¹
same,platelet count,"Subject 2, previous second-line therapy, baseline mean 6.5, D 25",2.1e+10 L⁻¹
same,platelet count,"Subject 3, previous first-line therapy, baseline mean 33.5, D 3",5.8e+10 L⁻¹
same,platelet count,"Subject 3, previous first-line therapy, baseline mean 33.5, D 11",8.3e+10 L⁻¹
same,platelet count,"Subject 3, previous first-line therapy, baseline mean 33.5, D 18",3.4e+10 L⁻¹
same,clinical efficacy in treating immune thrombocytopenia,,can effectively improve the platelet count
same,clinical efficacy in treating immune thrombocytopenia,listed as tablets of the compound of formula I,excellent clinical efficacy
same,overall safety,400 mg and 600 mg groups,good safety
same,overall safety,[1],controllable
same,dose-limiting toxicity (DLT) events,[2],no dose-limiting toxicity (DLT) events
same,treatment-related adverse events of grade 3 or higher,[2],no treatment-related adverse events of grade 3 or higher
same,percentage of subjects with at least one platelet count of ≥30×10^9/L and an increase of ≥2 times the baseline in platelet count,400 mg and 600 mg groups,relatively high
same,percentage of subjects with at least one platelet count of ≥30×10^9/L and an increase of ≥2 times the baseline in platelet count,[1],50%
same,percentage of subjects with at least one platelet count of ≥50×10^9/L,400 mg and 600 mg groups,relatively high
same,percentage of subjects with at least one platelet count of ≥50×10^9/L,[1],33.3%
